Source: patent US8293774B2, “Optically active (R)-aryloxypropionic acid amides and herbicidal composition comprising same” (Kyung Nong Corporation, priority 2007, dated 2012)

Columns and labels:
[1] = system: Barnyard grass; assay: Weed control test, 4-leaf stage plants (Test Example 1, Table 8); assay type: in vivo, Echinoch crus-galli Beauv. var. caudata Kitagawa
[2] = system: SORBI (Andropogon sorghum, common sorgum); assay: Weed control test, foliage treatment (Test Example 1, Table 7); assay type: in vivo
How it was run: (§1)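 Seeds sown in sandy loam and grown in a greenhouse at 20 to 30° C to the 3-leaf stage of barnyard grass; foliage then sprayed with 2,000 l/ha of a water-diluted emulsion of compound, acetone and Tween 80 (1:5:1 by weight). Damage scored visually, 1 to 100% versus untreated control, at 10 and 20 days.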

[3] = system: ARTHIS (Arthraxon hispidus (Thunb.) Makino, creek grass); assay: as above; assay type: in vivo
How it was run: as §1

[4] = system: DIGSA (Digitaria Sanguinalis (L.) SCOP, large crabgrass); assay: as above; assay type: in vivo
How it was run: as §1

[5] = system: ZEAMX (Zea mays L., corn); assay: as above; assay type: in vivo
How it was run: as §1

[6] = system: SETVIR (Setaria viridis (L.) Beauv, green foxtail); assay: as above; assay type: in vivo
How it was run: as §1

[7] = system: ECHOG (Echinoch crus-galli Beauv. var. caudata Kitagawa, barnyard grass); assay: as above; assay type: in vivo; conditions: 3-leaf stage
How it was run: as §1

[8] = system: PANDI (Panium dichotomiflorum Michx, fall panicum); assay: as above; assay type: in vivo
How it was run: as §1

[9] = system: rice (Nampyung rice); assay: Foliage treatment with emulsions, dry rice field conditions, harmful effect on rice (Test Example 2, Table 9); assay type: in vivo; conditions: 6~6.5-leaf stage, 150 g a.i./ha, emulsion; for Harmful effect, 20 days: 20 days after foliage treatment; for Harmful effect, 30 days: 30 days after foliage treatment
Excerpt: (§2) Seeds of rice (Nampyung rice) and barnyard grasses (Echinochloa oryzicola and Echinochloa crus-galli var. crus-galli) were placed in sandy loam of pots, covered with soil, and grown in the dry rice field conditions.

[10] = system: Rice; assay: Weed control test, 4-leaf stage plants (Test Example 1, Table 8)
Protocol: Seeds of rice, wheat, soy bean, barley, corn, common sorgum, barnyard grass, large crabgrass, creek grass, green foxtail and fall panicum were placed in sandy loam in 600 cm^2 pots and covered with soil. After keeping the pots in a greenhouse at 20 to 30° C. allowing growth of the plants to the 3-leaf stage of the barnyard grass, 2,000 l/ha of an emulsion obtained by diluting with water a mixture of 1 part by weight of a test compound, 5 parts by weight of acetone and 1 part by weight of an emulsifying agent (Tween 80, Junsei) was applied to the surface of the foliage of the plants. The plant damage at 10 days and 20 days after the foliage treatment was visually evaluated from the level of 1 to 100% by comparison with the untreated control: […]

[11] = system: ORYSA (Oryza sativa cv. Dongjin, rice); assay: Weed control test, foliage treatment (Test Example 1, Table 7)
[12] = system: HORVU (Hordeum vulgare L., barley); assay: as above
[13] = system: TRZAW (Tritium aestivum L., wheat); assay: as above
[14] = system: GLXMA (Glycine max(L.) MERR, soy bean); assay: as above
[15] = system: Echinochloa oryzicola; assay: Foliage treatment with emulsions, dry rice field conditions (Test Example 2, Table 9); assay type: in vivo; conditions: 150 g a.i./ha; emulsion of Formulation Example 3; division stage 1~2; 20 days after foliage treatment
Excerpt: as §2
(§3) Rice (6˜6.5-leaf stage, plant height 33.2 cm) and barnyard grasses (Echinochloa oryzicola: division stage 1˜2, plant height 38.0 cm, Echinochloa crus-galli var. crus-galli: division stage 1˜2, plant height 44.1 cm) were subjected to a foliage treatment with emulsions prepared according to Formulation Example 3 by using compounds of Examples 1, 5 and 13 (purity: 99% or more), wherein the emulsions were sprayed to the plants at a dosage of the active compound of 150 g/ha.
(§4) The herbicidal effect on the barnyard grasses and harmful effect on the rice of the test compounds at 20 days and 30 days after the foliage treatment were visually evaluated as in Test Example 1 in comparison with the untreated control, and the results are shown in Table 9.

[16] = system: Echinochloa crus-galli var. crus-galli; assay: as above; assay type: in vivo; conditions: 150 g a.i./ha; emulsion of Formulation Example 3; division stage 1~2; 20 days after foliage treatment
Excerpt: as §2, §3, §4

SMILES: C[C@@H](Oc1ccc(Oc2nc3ccc(Cl)cc3o2)cc1)C(=O)Nc1nc2cc(Cl)ccc2o1 [Example 1, (R)-2-[4-(6-chloro-2-benzoxazolyloxy)phenoxy]propionic acid-N-(5-chloro-2-benzoxazolyl)amide]
- Plant damage (herbicidal activity), visually evaluated, Barnyard grass ([1]; 0.025 kg/ha): 70%
- Plant damage (herbicidal activity), visually evaluated, Barnyard grass ([1]; 0.05 kg/ha): 90%
- Plant damage (herbicidal activity), visually evaluated, Barnyard grass ([1]; 0.1 kg/ha): 100%
- Plant damage (herbicidal activity), visually evaluated, Barnyard grass ([1]; 0.4 kg/ha): 100%
- pest or weed control at 25 g/ha ([2]; Sorghum bicolor, foliar, 0.025 kg/ha, read-out: Plant damage (herbicidal activity), visually evaluated, SORBI): 60%
- pest or weed control at 100 g/ha ([2]; Sorghum bicolor, foliar, 0.1 kg/ha, read-out: Plant damage (herbicidal activity), visually evaluated, SORBI): 100%
- pest or weed control at 200 g/ha ([2]; Sorghum bicolor, foliar, 0.2 kg/ha, read-out: Plant damage (herbicidal activity), visually evaluated, SORBI): 100%
- pest or weed control at 25 g/ha ([3]; Arthraxon hispidus, foliar, 0.025 kg/ha, read-out: Plant damage (herbicidal activity), visually evaluated, ARTHIS): 70%
- pest or weed control at 100 g/ha ([3]; Arthraxon hispidus, foliar, 0.1 kg/ha, read-out: Plant damage (herbicidal activity), visually evaluated, ARTHIS): 100%
- pest or weed control at 200 g/ha ([3]; Arthraxon hispidus, foliar, 0.2 kg/ha, read-out: Plant damage (herbicidal activity), visually evaluated, ARTHIS): 100%
- pest or weed control at 25 g/ha ([4]; Digitaria sanguinalis, foliar, 0.025 kg/ha, read-out: Plant damage (herbicidal activity), visually evaluated, DIGSA): 90%
- pest or weed control at 100 g/ha ([4]; Digitaria sanguinalis, foliar, 0.1 kg/ha, read-out: Plant damage (herbicidal activity), visually evaluated, DIGSA): 100%
- pest or weed control at 200 g/ha ([4]; Digitaria sanguinalis, foliar, 0.2 kg/ha, read-out: Plant damage (herbicidal activity), visually evaluated, DIGSA): 100%
- plant injury at 25 g/ha ([5]; Zea mays, foliar, 0.025 kg/ha, read-out: Plant damage (herbicidal activity), visually evaluated, ZEAMX): 30%
- plant injury at 100 g/ha ([5]; Zea mays, foliar, 0.1 kg/ha, read-out: Plant damage (herbicidal activity), visually evaluated, ZEAMX): 100%
- plant injury at 200 g/ha ([5]; Zea mays, foliar, 0.2 kg/ha, read-out: Plant damage (herbicidal activity), visually evaluated, ZEAMX): 100%
- pest or weed control at 25 g/ha ([6]; Setaria viridis, foliar, 0.025 kg/ha, read-out: Plant damage (herbicidal activity), visually evaluated, SETVIR): 70%
- pest or weed control at 100 g/ha ([6]; Setaria viridis, foliar, 0.1 kg/ha, read-out: Plant damage (herbicidal activity), visually evaluated, SETVIR): 100%
- pest or weed control at 200 g/ha ([6]; Setaria viridis, foliar, 0.2 kg/ha, read-out: Plant damage (herbicidal activity), visually evaluated, SETVIR): 100%
- pest or weed control at 25 g/ha ([7]; Echinochloa crus-galli, foliar, 0.025 kg/ha, read-out: Plant damage (herbicidal activity), visually evaluated, ECHOG): 95%
- pest or weed control at 100 g/ha ([7]; Echinochloa crus-galli, foliar, 0.1 kg/ha, read-out: Plant damage (herbicidal activity), visually evaluated, ECHOG): 100%
- pest or weed control at 200 g/ha ([7]; Echinochloa crus-galli, foliar, 0.2 kg/ha, read-out: Plant damage (herbicidal activity), visually evaluated, ECHOG): 100%
- pest or weed control at 25 g/ha ([8]; Panicum dichotomiflorum, foliar, 0.025 kg/ha, read-out: Plant damage (herbicidal activity), visually evaluated, PANDI): 90%
- pest or weed control at 100 g/ha ([8]; Panicum dichotomiflorum, foliar, 0.1 kg/ha, read-out: Plant damage (herbicidal activity), visually evaluated, PANDI): 100%
- pest or weed control at 200 g/ha ([8]; Panicum dichotomiflorum, foliar, 0.2 kg/ha, read-out: Plant damage (herbicidal activity), visually evaluated, PANDI): 100%
- Harmful effect, 20 days [9]: 0%
- Harmful effect, 30 days [9]: 0%
- Plant damage (herbicidal activity), visually evaluated, Rice ([10]; in vivo): 0%
- Plant damage (herbicidal activity), visually evaluated, ORYSA ([11]; in vivo): 0%
- Plant damage (herbicidal activity), visually evaluated, HORVU ([12]; in vivo): 0%
- Plant damage (herbicidal activity), visually evaluated, TRZAW ([13]; in vivo): 0%
- Plant damage (herbicidal activity), visually evaluated, GLXMA ([14]; in vivo): 0%
- Herbicidal effect (0~100), 20 days, Echinochloa oryzicola [15]: 100%
- Herbicidal effect (0~100), 20 days, Echinochloa crus-galli var. crus-galli [16]: 100%

SMILES: CCOC(=O)[C@@H](C)Oc1ccc(Oc2nc3ccc(Cl)cc3o2)cc1 [Phenoxaprop-P-ethyl, phenoxaprop-P-ethyl, reference compound]
- Plant damage (herbicidal activity), visually evaluated, Barnyard grass ([1]; 0.025 kg/ha): 90%
- Plant damage (herbicidal activity), visually evaluated, Barnyard grass ([1]; 0.05 kg/ha): 100%
- Plant damage (herbicidal activity), visually evaluated, Barnyard grass ([1]; 0.1 kg/ha): 100%
- Plant damage (herbicidal activity), visually evaluated, Barnyard grass ([1]; 0.4 kg/ha): 100%
- Plant damage (herbicidal activity), visually evaluated, SORBI ([2]; 0.025 kg/ha): 50%
- Plant damage (herbicidal activity), visually evaluated, SORBI ([2]; 0.1 kg/ha): 100%
- Plant damage (herbicidal activity), visually evaluated, SORBI ([2]; 0.2 kg/ha): 100%
- Plant damage (herbicidal activity), visually evaluated, ARTHIS ([3]; 0.025 kg/ha): 30%
- Plant damage (herbicidal activity), visually evaluated, ARTHIS ([3]; 0.1 kg/ha): 100%
- Plant damage (herbicidal activity), visually evaluated, ARTHIS ([3]; 0.2 kg/ha): 100%
- Plant damage (herbicidal activity), visually evaluated, DIGSA ([4]; 0.025 kg/ha): 40%
- Plant damage (herbicidal activity), visually evaluated, DIGSA ([4]; 0.1 kg/ha): 100%
- Plant damage (herbicidal activity), visually evaluated, DIGSA ([4]; 0.2 kg/ha): 100%
- Plant damage (herbicidal activity), visually evaluated, ZEAMX ([5]; 0.025 kg/ha): 30%
- Plant damage (herbicidal activity), visually evaluated, ZEAMX ([5]; 0.1 kg/ha): 100%
- Plant damage (herbicidal activity), visually evaluated, ZEAMX ([5]; 0.2 kg/ha): 100%
- Plant damage (herbicidal activity), visually evaluated, SETVIR ([6]; 0.025 kg/ha): 20%
- Plant damage (herbicidal activity), visually evaluated, SETVIR ([6]; 0.1 kg/ha): 100%
- Plant damage (herbicidal activity), visually evaluated, SETVIR ([6]; 0.2 kg/ha): 100%
- Plant damage (herbicidal activity), visually evaluated, ECHOG ([7]; 0.025 kg/ha): 30%
- Plant damage (herbicidal activity), visually evaluated, ECHOG ([7]; 0.1 kg/ha): 100%
- Plant damage (herbicidal activity), visually evaluated, ECHOG ([7]; 0.2 kg/ha): 100%
- Plant damage (herbicidal activity), visually evaluated, PANDI ([8]; 0.025 kg/ha): 30%
- Plant damage (herbicidal activity), visually evaluated, PANDI ([8]; 0.1 kg/ha): 100%
- Plant damage (herbicidal activity), visually evaluated, PANDI ([8]; 0.2 kg/ha): 100%
- Harmful effect, 20 days [9]: 23%
- Harmful effect, 30 days [9]: 38%
- Plant damage (herbicidal activity), visually evaluated, Rice ([10]; 4-leaf stage, 0.025 kg/ha): 20%
- Plant damage (herbicidal activity), visually evaluated, Rice ([10]; 4-leaf stage, 0.05 kg/ha): 30%
- Plant damage (herbicidal activity), visually evaluated, Rice ([10]; 4-leaf stage, 0.1 kg/ha): 70%
- Plant damage (herbicidal activity), visually evaluated, Rice ([10]; 4-leaf stage, 0.4 kg/ha): 80%
- Plant damage (herbicidal activity), visually evaluated, ORYSA ([11]; rice, 0.025 kg/ha, foliage treatment): 0%
- Plant damage (herbicidal activity), visually evaluated, ORYSA ([11]; rice, 0.1 kg/ha, foliage treatment): 0%
- Plant damage (herbicidal activity), visually evaluated, ORYSA ([11]; rice, 0.2 kg/ha, foliage treatment): 0%
- Plant damage (herbicidal activity), visually evaluated, HORVU ([12]; barley, 0.025 kg/ha, foliage treatment): 0%
- Plant damage (herbicidal activity), visually evaluated, HORVU ([12]; barley, 0.1 kg/ha, foliage treatment): 20%
- Plant damage (herbicidal activity), visually evaluated, HORVU ([12]; barley, 0.2 kg/ha, foliage treatment): 40%
- Plant damage (herbicidal activity), visually evaluated, TRZAW ([13]; wheat, 0.025 kg/ha, foliage treatment): 0%
- Plant damage (herbicidal activity), visually evaluated, TRZAW ([13]; wheat, 0.1 kg/ha, foliage treatment): 10%
- Plant damage (herbicidal activity), visually evaluated, TRZAW ([13]; wheat, 0.2 kg/ha, foliage treatment): 10%
- Plant damage (herbicidal activity), visually evaluated, GLXMA ([14]; soy bean, 0.025 kg/ha, foliage treatment): 0%
- Plant damage (herbicidal activity), visually evaluated, GLXMA ([14]; soy bean, 0.1 kg/ha, foliage treatment): 0%
- Plant damage (herbicidal activity), visually evaluated, GLXMA ([14]; soy bean, 0.2 kg/ha, foliage treatment): 0%
- Herbicidal effect (0~100), 20 days, Echinochloa oryzicola [15]: 100%
- Herbicidal effect (0~100), 20 days, Echinochloa crus-galli var. crus-galli [16]: 100%
